Measured values from ChEMBL document CHEMBL5233265, “Recent advances in the design and development of formyl peptide receptor 2 (FPR2/ALX) agonists as pro-resolving agents with diverse therapeutic potential” (Eur J Med Chem, 2021).

Tests used:
[1] = system: Mus musculus; assay: Anti-inflammatory activity against BALB/c mouse assessed as suppression ratio of LPS-induced neutrophil infiltration in lung at 1 mg/kg,po measured after 5.5 hrs by Diff-Quick staining based microscopic analysis; format: functional
[2] = target: T1, N-formyl peptide receptor 2 (Homo sapiens, UniProt P25090); assay: Agonist activity at FPR2 (unknown origin) assessed as increase in calcium flux
T1 sequence (P25090 whole entry): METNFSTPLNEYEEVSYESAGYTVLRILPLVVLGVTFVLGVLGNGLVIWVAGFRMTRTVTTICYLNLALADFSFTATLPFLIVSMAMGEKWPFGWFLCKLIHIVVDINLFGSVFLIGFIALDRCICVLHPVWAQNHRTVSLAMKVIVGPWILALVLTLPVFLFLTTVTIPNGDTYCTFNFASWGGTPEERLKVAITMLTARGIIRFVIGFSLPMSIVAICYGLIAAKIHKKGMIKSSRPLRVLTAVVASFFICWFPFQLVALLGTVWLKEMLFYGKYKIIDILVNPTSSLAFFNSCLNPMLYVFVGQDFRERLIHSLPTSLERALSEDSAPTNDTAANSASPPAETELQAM

[3] = Agonist activity at FPR in human PMNL cells assessed as increase in intracellular calcium mobilization incubated for 30 mins by Fluo-4 AM dye based FLIPR-fluorometeric assay; format: cell-based; details: 0.5 h
[4] = target: T2, N-formyl peptide receptor 2 (Homo sapiens) (UniProt P25090); assay: Agonist activity at human FPR2 transfected in HL-60 cells assessed as maximal intracellular calcium flux incubated for 30 mins by Fluo-4 AM dye based FLIPR-fluorometeric assay relative to control; format: cell-based; details: filed as agonist
T2 sequence (whole entry): T1 sequence (P25090 whole entry)

[5] = system: PMNL; assay: Agonist activity at FPR in human PMNL cells assessed as maximal intracellular calcium mobilization incubated for 30 mins by Fluo-4 AM dye based FLIPR-fluorometeric assay relative to control; format: cell-based; details: filed as agonist
[6] = target: T3, fMet-Leu-Phe receptor (Homo sapiens) (UniProt P21462); assay: Agonist activity at human FPR1 transfected in HL-60 cells assessed as maximal intracellular calcium flux incubated for 30 mins by Fluo-4 AM dye based FLIPR-fluorometeric assay relative to control; format: cell-based; details: filed as agonist
T3 sequence (whole entry): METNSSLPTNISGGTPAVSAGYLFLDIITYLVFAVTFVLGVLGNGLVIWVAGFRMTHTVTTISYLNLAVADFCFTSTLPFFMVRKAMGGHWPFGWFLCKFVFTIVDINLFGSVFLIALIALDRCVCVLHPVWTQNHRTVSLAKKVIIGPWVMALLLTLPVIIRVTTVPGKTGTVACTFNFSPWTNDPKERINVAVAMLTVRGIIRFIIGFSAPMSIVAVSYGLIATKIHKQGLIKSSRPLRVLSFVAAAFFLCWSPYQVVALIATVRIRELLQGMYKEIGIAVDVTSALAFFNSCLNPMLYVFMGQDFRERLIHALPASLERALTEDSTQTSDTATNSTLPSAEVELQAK

[7] = target: T2, N-formyl peptide receptor 2 (Homo sapiens); assay: Agonist activity at human recombinant FPR2 stably transfected in Flp-In-CHO cells assessed as ERK1/2 phosphorylation at 10 uM incubated for 1 hr by Alphascreen fluorescence assay relative to control; format: cell-based
[8] = target: T1, N-formyl peptide receptor 2; assay: Agonist activity at human recombinant FPR2 stably transfected in Flp-In-CHO cells assessed as increase in intracellular calcium mobilization incubated for 1 hr by Fluo-4 AM dye based fluorescence plate reader assay; format: cell-based
[9] = target: T4, fMet-Leu-Phe receptor (Homo sapiens, UniProt P21462); assay: Agonist activity at human recombinant FPR1 stably transfected in Flp-In-CHO cells assessed as increase in intracellular calcium mobilization incubated for 1 hr by Fluo-4 AM dye based fluorescence plate reader assay; format: cell-based
T4 sequence (P21462 whole entry): T3 sequence (whole entry)

[10] = target: T2, N-formyl peptide receptor 2 (Homo sapiens); assay: Agonist activity at human recombinant FPR2 stably transfected in Flp-In-CHO cells assessed as maximal intracellular calcium mobilization at 10 uM incubated for 1 hr by Fluo-4 AM dye based fluorescence plate reader assay relative to control; format: cell-based
[11] = target: T3, fMet-Leu-Phe receptor (Homo sapiens); assay: Agonist activity at human recombinant FPR1 stably transfected in Flp-In-CHO cells assessed as ERK1/2 phosphorylation at 10 uM incubated for 1 hr by Alphascreen fluorescence assay relative to control; format: cell-based; details: filed as agonist
[12] = target: T4, fMet-Leu-Phe receptor; assay: Agonist activity at human recombinant FPR1 stably transfected in Flp-In-CHO cells assessed as ERK1/2 phosphorylation incubated for 1 hr by Alphascreen fluorescence assay; format: cell-based
[13] = target: T3, fMet-Leu-Phe receptor (Homo sapiens); assay: Agonist activity at human recombinant FPR1 stably transfected in Flp-In-CHO cells assessed as maximal intracellular calcium mobilization at 10 uM incubated for 1 hr by Fluo-4 AM dye based fluorescence plate reader assay relative to control; format: cell-based
[14] = target: T1, N-formyl peptide receptor 2; assay: Agonist activity at human recombinant FPR2 stably transfected in Flp-In-CHO cells assessed as ERK1/2 phosphorylation incubated for 1 hr by Alphascreen fluorescence assay; format: cell-based
[15] = target: T1, N-formyl peptide receptor 2; assay: Agonist activity at human FPR2 expressed in HEK293 cells assessed as increase in calcium flux incubated for 45 mins by Fluo-4 AM dye based fluorescence assay; format: cell-based
[16] = target: T4, fMet-Leu-Phe receptor; assay: Agonist activity at human FPR1 transfected in HL-60 cells assessed as increase in intracellular calcium flux incubated for 30 mins by Fluo-4 AM dye based fluorometer analysis; format: cell-based; details: read-out: EC50
[17] = Agonist activity at FPR in human PMNL cells assessed as increase in intracellular calcium mobilization incubated for 30 mins by Fluo-4 AM dye based fluorometer analysis; format: cell-based; details: 0.5 h
[18] = target: T1, N-formyl peptide receptor 2; assay: Agonist activity at human FPR2 transfected in HL-60 cells assessed as increase in intracellular calcium flux incubated for 30 mins by Fluo-4 AM dye based fluorometer analysis; format: cell-based; details: read-out: EC50
[19] = target: T4, fMet-Leu-Phe receptor; assay: Agonist activity at human FPR1 transfected in HL-60 cells assessed as increase in intracellular calcium flux incubated for 30 mins by Fluo-4 AM dye based FLIPR-fluorometeric assay; format: cell-based
[20] = target: T1, N-formyl peptide receptor 2; assay: Agonist activity at human FPR2 transfected in HL-60 cells assessed as increase in intracellular calcium flux incubated for 30 mins by Fluo-4 AM dye based FLIPR-fluorometeric assay; format: cell-based
[21] = target: T1, N-formyl peptide receptor 2; assay: Agonist activity at human FPR2 expressed in CHO-A12 cells assessed as cAMP level incubated for 1.5 hr by HTRF assay; format: cell-based
[22] = system: Mus musculus; assay: Neuroprotective activity against angiotensin II induced cardiac fibrosis mouse model assessed as reduction in fibrosis at 3 mg/kg,po qd measured after 3 weeks; format: functional; design: scale not given: the % may be the effect or the level left
[23] = Agonist activity at rat FPR1 expressed in CHO-A12 cells assessed as cAMP level incubated for 1.5 hr by HTRF assay; format: cell-based
[24] = Agonist activity at rat FPR2 expressed in CHO-A12 cells assessed as cAMP level incubated for 1.5 hr by HTRF assay; format: cell-based
[25] = system: Mus musculus; assay: Neuroprotective activity against coronary artery occlusion mouse model assessed as reduction in left ventricular chamber dilatation at 0.3 mg/kg,po measured after […]; format: functional; design: scale not given: the % may be the effect or the level left
[26] = system: HL-60; assay: Inhibition of cell migration in human HL-60 cells incubated for 135 mins by transwell assay; format: functional, cell-based; details: HL-60, 2.25 h
[27] = system: Peritoneal macrophage; assay: Induction of phagocytosis in C57BL6 mouse peritoneal macrophages assessed as increase in FITC signal preincubated with compound for 15 mins followed by zymosan addition and measured after 90 mins by Trypan Blue based FITC analysis
[28] = system: Mus musculus; assay: Neuroprotective activity against coronary artery occlusion mouse model assessed as reduction in left ventricular chamber dilatation at 3 mg/kg,po measured after […]; format: functional; design: scale not given: the % may be the effect or the level left
[29] = system: Mus musculus; assay: Neuroprotective activity against DOCA induced cardiac fibrosis mouse model assessed as reduction in left ventricular fibrosis at 1 mg/kg,po qd measured after 3 weeks; format: functional; design: scale not given: the % may be the effect or the level left
[30] = system: Mus musculus; assay: Anti-inflammatory activity against BALB/c mouse assessed as suppression ratio of LPS-induced neutrophil infiltration in lung at 3 mg/kg,po measured after 5.5 hrs by Diff-Quick staining based microscopic analysis; format: functional
[31] = target: T3, fMet-Leu-Phe receptor (Homo sapiens); assay: Agonist activity at human FPR1 transfected in HL-60 cells assessed as maximal intracellular calcium flux incubated for 30 mins by Fluo-4 AM dye based fluorometer analysis relative to control; format: cell-based; details: filed as agonist
[32] = target: T2, N-formyl peptide receptor 2 (Homo sapiens); assay: Agonist activity at human FPR2 transfected in HL-60 cells assessed as maximal intracellular calcium flux incubated for 30 mins by Fluo-4 AM dye based fluorometer analysis relative to control; format: cell-based; details: filed as agonist

N#Cc1ccc(NC(=O)N[C@@H]2C(=O)NC[C@H]2c2cc3c(cc2F)OCC3)cc1
Ratio [1]: 99.2%

COc1cc(F)c([C@@H]2CN3CCON=C3[C@H]2NC(=O)Nc2ccc(F)cc2)c(F)c1
EC50 [2]: 0.02 nM

COc1cccc(Cc2c(C)c(C)nn(CC(=O)Nc3ccc(Br)cc3)c2=O)c1
EC50 [3]: 19 nM | Emax [4]: 80% | Emax [5]: 85% | Emax [6]: 85%

COc1cccc(Cc2cc(C)nn([C@H](C)C(=O)Nc3ccc(Cl)cc3)c2=O)c1
Emax ([7]; filed as agonist): 85% | EC50 [8]: > 10000 nM | EC50 [9]: 3980 nM | Emax [10]: 8% | Emax [11]: 82% | EC50 [12]: 794 nM | Emax [13]: 38% | EC50 [14]: 1260 nM

COc1ccc(NC(=O)N[C@@H]2/C(=N/OCCO)NC[C@H]2c2c(F)cc(OC)cc2F)cc1
EC50 [15]: 0.27 nM | Ratio [1]: 96.8%

O=C(Cn1c(=O)[nH]cc(-c2ccccc2)c1=O)Nc1ccc(Br)cc1
EC50 [16]: 12500 nM | EC50 [17]: 4500 nM | EC50 [18]: 8900 nM

COc1cccc(Cc2c(-c3ccccc3)c(C)nn(CC(=O)Nc3ccc(Br)cc3)c2=O)c1
EC50 [3]: 200 nM | Emax [4]: 115% | Emax [5]: 110% | EC50 [19]: Not Active | EC50 [20]: 150 nM

COc1cccc(Cc2cc(C)nn([C@@H](C)C(=O)Nc3ccc(Cl)cc3)c2=O)c1
Emax [7]: 8% | EC50 [8]: > 10000 nM | EC50 [9]: > 10000 nM | Emax [10]: 4% | Emax [11]: 78% | EC50 [12]: 1260 nM | Emax [13]: 16% | EC50 [14]: > 10000 nM

COc1cccc(Cc2cc(C)nn(C(C)C(=O)Nc3ccc(Cl)cc3)c2=O)c1 (racemic)
Emax ([7]; filed as agonist): 82% | EC50 [8]: > 10000 nM | EC50 [9]: 7940 nM | Emax [10]: 6% | Emax [11]: 70% | EC50 [12]: 1000 nM | Emax [13]: 22% | EC50 [14]: 1580 nM

COc1cccc(-c2cc(C#N)c(C)n(CC(=O)Nc3ccc(Br)cc3)c2=O)c1
EC50 [16]: 1600 nM | EC50 [17]: 390 nM | EC50 [18]: 120 nM

COc1cc(F)c([C@@H]2CNC(=O)[C@H]2NC(=O)Nc2ccccc2)c(F)c1 [BMS-986235]
EC50 [21]: 1250 nM | Activity [22]: 89% | EC50 [23]: 1.5 nM | EC50 [24]: 720 nM | Activity [25]: 26% | IC50 [26]: 57 nM | EC50 [27]: 2 nM | Activity [28]: 24% | Activity [29]: 50%

COc1cc(F)c([C@@H]2CNC(=O)[C@H]2NC(=O)Nc2ccc(C)cc2)c(F)c1
Ratio [30]: 57% | EC50 [15]: 0.86 nM

CCN1C[C@@H](c2ccc(OC)cc2)[C@H](NC(=O)Nc2ccc(F)cc2)C1=O
Ratio [30]: 97.4% | EC50 [15]: 0.13 nM

N/C(=N\C(=O)CCO)[C@H](Cc1ccc(Cl)cc1)NC(=O)Nc1ccc(Cl)cc1
Ratio [30]: 86%

COc1ccc(Cc2c(C)c(C)nn(CC(=O)Nc3ccc(Br)cc3)c2=O)cc1
EC50 [3]: 270 nM | Emax [4]: 95% | Emax [5]: 140% | EC50 ([19]; read-out: EC50): 900 nM | EC50 ([20]; hl-60): 13 nM | Emax [6]: 60%

COc1ccc(NC(=O)N[C@H](Cc2ccc(O)cc2)C(=O)NCC2(c3ccccc3)CC2)cc1
Emax [31]: 55% | EC50 ([16]; hl-60): 5100 nM | Emax [32]: 90% | EC50 ([18]; hl-60): 410 nM

COc1ccc(NC(=O)N[C@@H](Cc2ccc(O)cc2)C(=O)NCC2(c3ccccc3)CC2)cc1
Emax [31]: 95% | EC50 [16]: 1500 nM | Emax [32]: 130% | EC50 [18]: 2900 nM

COc1ccc(C[C@H](NC(=O)Nc2ccc(Cl)cc2)c2noc(CCO)n2)cc1
Ratio [30]: 94% | EC50 [15]: 0.17 nM
